How the values were obtained:
Aphidius rhopalosiphi = settings: not reported
Apis mellifera = settings: acute; duration: 48 hours; dermal; mortality
Canidae = settings: chronic, oral, Dog Other, clinical signs
Daphnia magna = settings: chronic/long-term; duration: 21 days; reproduction

Compound: CC[C@H](C)[C@H]1O[C@]2(C=C[C@@H]1C)C[C@@H]1C[C@@H](C/C=C(\C)[C@@H](O[C@H]3C[C@H](OC)[C@@H](O[C@H]4C[C@H](OC)[C@@H](O)[C@H](C)O4)[C@H](C)O3)[C@@H](C)/C=C/C=C3\CO[C@@H]4[C@H](O)C(C)=C[C@@H](C(=O)O1)[C@]34O)O2.CO[C@H]1C[C@H](O[C@H]2[C@H](C)O[C@@H](O[C@@H]3/C(C)=C/C[C@@H]4C[C@@H](C[C@]5(C=C[C@H](C)[C@@H](C(C)C)O5)O4)OC(=O)[C@@H]4C=C(C)[C@@H](O)[C@H]5OC/C(=C\C=C\[C@@H]3C)[C@]54O)C[C@@H]2OC)O[C@@H](C)[C@@H]1O [Abamectin]
- LD50 (Anas platyrhynchos; acute, oral, unspecified, mortality): ≤ 77 mg/kg-day
- NOEC (Anas platyrhynchos; reproductive, M): 1.33 mg/kg-day
- LC50 (Anas platyrhynchos; short-term, oral, feed, mortality): 48.6 mg/kg-day
- LEL (Aphidius rhopalosiphi; mortality): 4.32 g/ha
- LEL (Aphidius rhopalosiphi; reproduction): 4.32 g/ha
- LD50 (Apis mellifera): 0.0022 µg/piece
- NOAEL (Canidae; duration: 18 weeks): 0.25 mg/kg-day
- NOAEL (Canidae; duration: 53 weeks): 0.25 mg/kg-day
- NOEC (Daphnia magna): 1e-05 mg/L
- LC50 (Oncorhynchus mykiss; acute, duration: 96 hours, mortality): 3.6 ng/mL
- NOEC (Oncorhynchus mykiss; chronic/long-term, duration: 28 days): 0.00052 mg/L
- NOAEL (Rattus norvegicus; acute, clinical signs): 0.5 mg/kg-day
- LD50 (Rattus norvegicus; acute, oral, mortality): 8.7 mg/kg-day
- NOEC (Rattus norvegicus; chronic): 0.12 mg/kg-day
- LC50 (Tagia sp.; acute, duration: 14 days, mortality): 33 mg/kg
- NOEC (Tagia sp.; chronic/long-term): > 0.72 mg/kg

— EPA's ToxValDB 9.5 (doi:10.2903/j.efsa.2008.147r)
